In patent US5817692A, “Endoperoxides useful as antiparasitic agents” (priority 1996, dated 1998):
Like-named read-outs stand apart in the source and are kept apart here.

Legend:
Format in all cases: cell-based
L929 cells = test: cytotoxicity to L929 cells, MTT assay (viability and replication); parameters: Toxicity, Mean: unit not given here; details: L929 cells; for Toxicity, Mean: MTT; for inhibition at 0.1 µM / inhibition at 1 µM / inhibition at 10 µM / inhibition at 50 µM: Mus musculus, read-out: Toxicity, % of control (inhibition)
Experimental: Toxoplasma gondii is the causative agent of cerebral toxoplasmic encephalitis, an AIDS-related opportunistic infection. The biological activity of the endoperoxide JHU 2886 of the present invention was measured against Toxoplasma gondii cultured in L929 cells.
More specifically, the cytotoxicity of synthetic organic endoperoxide JHU 2886 was tested in L929 cells by measuring the viability and replication of exposed cells. The cytotoxicity of the compound to the cultured cells was measured using the MTT assay (Promega kit), according to the procedure of Carmichael et al. (18). MTT is an abbreviation for [3-(4,5-dimethylthiazol-2-yl)-2,5-dephenyltetrazolium bromide].
This compound is referred to as JHU 2886 in Table 1. In this experiment atovaquone and artemisinin were used as positive controls. Atovaquone is a broad-spectrum anti-infective drug having antimalarial and antitoxoplasmosis activity (19).
^1 The cytotoxicity of each compound for the cultured cells was
measured using the MTT assay (Promega kit) and inhibition of the […]

Toxoplasma gondii = test: inhibition of intracellular replication of T. gondii in infected L929 cells, uracil incorporation assay; parameters: Activity, Mean: unit not given here; details: for Activity, Mean: uracil incorporation; for inhibition at 0.1 µM / inhibition at 1 µM / inhibition at 10 µM / inhibition at 50 µM: Toxoplasma gondii, L929, read-out: Activity, % of control (inhibition)
Experimental: Toxoplasma gondii is the causative agent of cerebral toxoplasmic encephalitis, an AIDS-related opportunistic infection. The biological activity of the endoperoxide JHU 2886 of the present invention was measured against Toxoplasma gondii cultured in L929 cells. The inhibitory activity of the synthetic organic endoperoxide was tested by measuring the intracellular replication of T. gondii in infected L929 cells. The inhibition of the intracellular replication of T. gondii was determined using the uracil incorporation assay (20). […] This compound is referred to as JHU 2886 in Table 1. In this experiment atovaquone and artemisinin were used as positive controls. Atovaquone is a broad-spectrum anti-infective drug having antimalarial and antitoxoplasmosis activity (19). | measured using the MTT assay (Promega kit) and inhibition of the | intracellular replication of T. gondii was determined using the uracil | incorporation assay.

Plasmodium falciparum = test: antimalarial activity, tritiated-hypoxanthine incorporation assay in human red blood cells; details: Erythrocyte, read-out: IC50 (inhibition of 50% of the replication of Plasmodium falciparum)
Experimental: (§1) The protozoan Plasmodium falciparum is a causative agent of malaria, the single most critical infectious disease of mankind. The antimalarial activity of the endoperoxides was determined according to the method of Desjardins et al. (16) as modified by Milhous et al. (17). Briefly, the antimalarial activity of the endoperoxides was tested in a tritiated-hypoxanthine incorporation assay by determining the concentration of the test compound needed to inhibit 50% of the replication of Plasmodium falciparum (IC50) in human red blood cells.
It is particularly noted that JHU 2886 has an excellent therapeutic index (ratio of activity to toxicity). At 1 μM, JHU 2886 has a therapeutic index of 70/0, whereas at the same concentration artimisinin has a therapeutic index of 76/10 (7.6), and atovaquone has a therapeutic index of only 95/17 (5.6). […] The first two compounds are known while the following five are being disclosed for the first time. […] Compounds of this formula wherein Ar is p-FCH2 Ph or p-HOCH2 Ph and X is CH2 are also expected to be particularly useful. […]

P. falciparum NF54 = test: antimalarial activity, P. falciparum NF54 parasites in vitro; details: Plasmodium falciparum; P. falciparum NF54 parasites in vitro; read-out: Antimalarial Activity IC50
Experimental: as §1
Tables 4 and 5 show the structures and antimalarial activities of unsaturated and saturated bicyclic [2.2.2] endoperoxides of the invention. Compounds of this formula wherein R and R' are identical are particularly preferred. It is expected that compounds wherein R and R' are selected from the groups [drawing 33] will be especially useful. […]

Structure (SMILES): C[C@@H]1CC[C@H]2[C@@H](C)C(=O)O[C@@H]3O[C@@]4(C)CC[C@@H]1[C@]32OO4 [Artemisinin]
- Toxicity, Score (L929 cells; 24 hours, dose 0.1 μM): 1 (≤20%)
- Toxicity, Mean (L929 cells; 24 hours, dose 0.1 μM): 0.103
- Toxicity, Score (L929 cells; 24 hours, dose 1.0 μM): 1 (≤20%)
- Toxicity, Mean (L929 cells; 24 hours, dose 1.0 μM): 0.101
- Toxicity, Score (L929 cells; 24 hours, dose 10.0 μM): 1 (≤20%)
- Toxicity, Mean (L929 cells; 24 hours, dose 10.0 μM): 0.104
- Toxicity, Score (L929 cells; 24 hours, dose 50.0 μM): 1 (≤20%)
- Toxicity, Mean (L929 cells; 24 hours, dose 50.0 μM): 0.110
- Toxicity, Mean (L929 cells; 48 hours, dose 0.1 μM): 0.213
- Toxicity, Score (L929 cells; 48 hours, dose 1.0 μM): 1 (≤20%)
- Toxicity, Mean (L929 cells; 48 hours, dose 1.0 μM): 0.205
- Toxicity, Score (L929 cells; 48 hours, dose 10.0 μM): 1 (≤20%)
- Toxicity, Mean (L929 cells; 48 hours, dose 10.0 μM): 0.195
- Toxicity, Score (L929 cells; 48 hours, dose 50.0 μM): 1 (≤20%)
- Toxicity, Mean (L929 cells; 48 hours, dose 50.0 μM): 0.193
- Toxicity, Mean (L929 cells; 72 hours, dose 0.1 μM): 0.460
- Toxicity, Score (L929 cells; 72 hours, dose 1.0 μM): 1 (≤20%)
- Toxicity, Mean (L929 cells; 72 hours, dose 1.0 μM): 0.394
- Toxicity, Score (L929 cells; 72 hours, dose 10.0 μM): 1 (≤20%)
- Toxicity, Mean (L929 cells; 72 hours, dose 10.0 μM): 0.354
- Toxicity, Score (L929 cells; 72 hours, dose 50.0 μM): 2 (>20%-≤40%)
- Toxicity, Mean (L929 cells; 72 hours, dose 50.0 μM): 0.348
- inhibition at 0.1 µM (L929 cells; 24 hours, dose 0.1 μM): 8.56%
- inhibition at 1 µM (L929 cells; 24 hours, dose 1.0 μM): 10.3%
- inhibition at 10 µM (L929 cells; 24 hours, dose 10.0 μM): 7.67%
- inhibition at 50 µM (L929 cells; 24 hours, dose 50.0 μM): 2.36%
- inhibition at 0.1 µM (L929 cells; 48 hours, dose 0.1 μM): 0%
- inhibition at 1 µM (L929 cells; 48 hours, dose 1.0 μM): 3.75%
- inhibition at 10 µM (L929 cells; 48 hours, dose 10.0 μM): 8.44%
- inhibition at 50 µM (L929 cells; 48 hours, dose 50.0 μM): 9.53%
- inhibition at 0.1 µM (L929 cells; 72 hours, dose 0.1 μM): 0%
- inhibition at 1 µM (L929 cells; 72 hours, dose 1.0 μM): 9.97%
- inhibition at 10 µM (L929 cells; 72 hours, dose 10.0 μM): 19.2%
- inhibition at 50 µM (L929 cells; 72 hours, dose 50.0 μM): 20.6%
- therapeutic index (ratio of activity to toxicity), quotient (Toxoplasma gondii; 1 μM, T. gondii activity / L929 toxicity): 7.6
- Activity, Score (Toxoplasma gondii; 24 hours, dose 0.1 μM): 2 (>20%-≤40%)
- Activity, Mean (Toxoplasma gondii; 24 hours, dose 0.1 μM): 10106
- Activity, Score (Toxoplasma gondii; 24 hours, dose 1.0 μM): 4 (>70%-≤90%)
- Activity, Mean (Toxoplasma gondii; 24 hours, dose 1.0 μM): 3467
- Activity, Score (Toxoplasma gondii; 24 hours, dose 10.0 μM): 4 (>70%-≤90%)
- Activity, Mean (Toxoplasma gondii; 24 hours, dose 10.0 μM): 3470
- Activity, Score (Toxoplasma gondii; 24 hours, dose 50.0 μM): 4 (>70%-≤90%)
- Activity, Mean (Toxoplasma gondii; 24 hours, dose 50.0 μM): 33322
- Activity, Score (Toxoplasma gondii; 48 hours, dose 0.1 μM): 1 (≤20%)
- Activity, Mean (Toxoplasma gondii; 48 hours, dose 0.1 μM): 15440
- Activity, Score (Toxoplasma gondii; 48 hours, dose 1.0 μM): 3 (>40%-≤70%)
- Activity, Mean (Toxoplasma gondii; 48 hours, dose 1.0 μM): 6101
- Activity, Score (Toxoplasma gondii; 48 hours, dose 10.0 μM): 4 (>70%-≤90%)
- Activity, Mean (Toxoplasma gondii; 48 hours, dose 10.0 μM): 4225
- Activity, Score (Toxoplasma gondii; 48 hours, dose 50.0 μM): 4 (>70%-≤90%)
- Activity, Mean (Toxoplasma gondii; 48 hours, dose 50.0 μM): 4167
- Activity, Score (Toxoplasma gondii; 72 hours, dose 0.1 μM): 0
- Activity, Mean (Toxoplasma gondii; 72 hours, dose 0.1 μM): 8253
- Activity, Score (Toxoplasma gondii; 72 hours, dose 1.0 μM): 4 (>70%-≤90%)
- Activity, Mean (Toxoplasma gondii; 72 hours, dose 1.0 μM): 1976
- Activity, Score (Toxoplasma gondii; 72 hours, dose 10.0 μM): 4 (>70%-≤90%)
- Activity, Mean (Toxoplasma gondii; 72 hours, dose 10.0 μM): 783
- Activity, Score (Toxoplasma gondii; 72 hours, dose 50.0 μM): 4 (>70%-≤90%)
- Activity, Mean (Toxoplasma gondii; 72 hours, dose 50.0 μM): 813
- inhibition at 0.1 µM (Toxoplasma gondii; 24 hours, dose 0.1 μM): 29.6%
- inhibition at 1 µM (Toxoplasma gondii; 24 hours, dose 1.0 μM): 75.8%
- inhibition at 10 µM (Toxoplasma gondii; 24 hours, dose 10.0 μM): 75.8%
- inhibition at 50 µM (Toxoplasma gondii; 24 hours, dose 50.0 μM): 76.8%
- inhibition at 0.1 µM (Toxoplasma gondii; 48 hours, dose 0.1 μM): 10.4%
- inhibition at 1 µM (Toxoplasma gondii; 48 hours, dose 1.0 μM): 64.6%
- inhibition at 10 µM (Toxoplasma gondii; 48 hours, dose 10.0 μM): 75.5%
- inhibition at 50 µM (Toxoplasma gondii; 48 hours, dose 50.0 μM): 75.8%
- inhibition at 0.1 µM (Toxoplasma gondii; 72 hours, dose 0.1 μM): -14.1%
- inhibition at 1 µM (Toxoplasma gondii; 72 hours, dose 1.0 μM): 72.7%
- inhibition at 10 µM (Toxoplasma gondii; 72 hours, dose 10.0 μM): 89.2%
- inhibition at 50 µM (Toxoplasma gondii; 72 hours, dose 50.0 μM): 88.8%
- IC50 (Plasmodium falciparum): 11 nM
- IC50 (P. falciparum NF54): 11 nM
